Patent US20170325459A1, “BICYCLIC COMPOUNDS AS PEST CONTROL AGENTS” (Bayer CropScience Aktiengesellschaft, priority 2014, published 2017)

How the values were obtained:
[1] = test system: Phaedon cochleariae; assay: Phaedon cochleariae spray test; assay type: in vivo; settings: application rate 500 g/ha, Chinese cabbage leaf discs, after 7 days
Method: Phaedon cochleariae—Spray Test
Solvent: 78.0 parts by weight of acetone • • 1.5 parts by weight of dimethylformamide
Emulsifier: alkylaryl polyglycol ether
To produce a suitable active ingredient formulation, 1 part by weight of active ingredient is dissolved using the specified parts by weight of solvent and made up with water containing an emulsifier concentration of 1000 ppm until the desired concentration is attained. To produce further test concentrations, the formulation is diluted with emulsifier-containing water.
After 7 days, the efficacy in % is determined. 100% means that all the beetle larvae have been killed and 0% means that none of the beetle larvae have been killed.

[2] = log P by HPLC (OECD Guideline 117), method [a] acidic range pH 2.7; assay type: physicochemical; settings: for chromatographic logP: reversed-phase (RP) C18 HPLC column
Method: (§1) The log P values were determined in accordance with OECD Guideline 117 (EC Directive 92/69/EEC) by HPLC (high-performance liquid chromatography) using reversed-phase (RP) columns (C18), by the following methods: [a] The LC-MS determination in the acidic range is carried out at pH 2.7 with 0.1% aqueous formic acid and acetonitrile (contains 0.1% formic acid) as eluents; linear gradient from 10% acetonitrile to 95% acetonitrile. [b] LC-MS determination in the neutral range is effected at pH 7.8 with 0.001 molar aqueous ammonium hydrogencarbonate solution and acetonitrile as eluents; linear gradient from 10% acetonitrile to 95% acetonitrile. Calibration is effected using unbranched alkan-2-ones (having 3 to 16 carbon atoms) with known log P values (log P values determined on the basis of the retention times by linear interpolation between two successive alkanones).

[3] = test system: Myzus persicae; assay: Myzus persicae spray test; assay type: in vivo; settings: Chinese cabbage leaf discs, after 6 days; for pest or weed control at 500 g/ha: Myzus persicae, foliar, 144 h, read-out: efficacy (aphids killed)
Method: Myzus persicae—Spray Test Solvent: 78 parts by weight of acetone • • 1.5 parts by weight of dimethylformamide Emulsifier: alkylaryl polyglycol ether To produce a suitable active ingredient formulation, 1 part by weight of active ingredient is dissolved using the specified parts by weight of solvent and made up with water containing an emulsifier concentration of 1000 ppm until the desired concentration is attained. To produce further test concentrations, the formulation is diluted with emulsifier-containing water. Discs of Chinese cabbage leaves (Brassica pekinensis) infested by all stages of the green peach aphid (Myzus persicae) are sprayed with an active ingredient formulation of the desired concentration. After 6 days, the efficacy in % is determined. 100% means that all the aphids have been killed and 0% means that none of the aphids have been killed.

[4] = log P by HPLC (OECD Guideline 117), method [b] neutral range pH 7.8; assay type: physicochemical; settings: for chromatographic logP: reversed-phase (RP) C18 HPLC column
Method: as §1

[5] = test system: Boophilus microplus; assay: Boophilus microplus injection test; assay type: in vivo; settings: application rate 20 μg/animal, injection into engorged adult female cattle ticks, assessed after 7 days
Method: Boophilus microplus—Injection Test Solvent: dimethyl sulphoxide To produce a suitable active ingredient formulation, 10 mg of active ingredient are mixed with 0.5 ml of solvent and the concentrate is diluted to the desired concentration with solvent. 1 μl of the active ingredient solution is injected into the abdomen of 5 engorged adult female cattle ticks (Boophilus microplus). The animals are transferred into dishes and kept in a climate-controlled room. Efficacy is assessed after 7 days by laying of fertile eggs. Eggs which are not visibly fertile are stored in a climate-controlled cabinet until the larvae hatch after about 42 days. An efficacy of 100% means that none of the ticks has laid any fertile eggs; 0% means that all the eggs are fertile.

logP[a] [2]	chromatographic logP [2]	chromatographic logP [4]	Compound	pest or weed control at 500 g/ha ([3]; application rate 500 g/ha) [%]	efficacy (aphids killed) ([3]; application rate 500 g/ha) [%]	other results
1.66			Cc1nn(-c2ccc3nc(-c4cccnc4)sc3c2)c(=O)n1C [compound 48]		90	logP[b] [4]: 1.81
	1.79	1.84	Cn1c(=O)cnn(-c2ccc3nc(-c4cccnc4)sc3c2)c1=O [compound 56, 4-Methyl-2-[2-(pyridin-3-yl)-1,3-benzothiazol-6-yl]-1,2,4-triazine-3,5(2H,4H)-dione]	90		
		1.64	c1cncc(-c2nc3ccc(-n4ccnc4)cc3s2)c1 [compound 25, 6-(1H-Imidazol-1-yl)-2-(pyridin-3-yl)-1,3-benzothiazole]	90		efficacy (laying of fertile eggs) [5]: 80%
1.42			CN(C)C(=O)c1ccc2nc(-c3cccnc3)sc2c1 [compound 59]		100	
1.71			CCN(C)C(=O)c1ccc2nc(-c3cccnc3)sc2c1 [compound 61]		100	
1.41			Cc1nn(-c2ccc3nc(-c4cccnc4)sc3c2)c(=S)n1C [compound 49]		90	logP[b] [4]: 1.58
2.62			Cc1cnn(-c2ccc3nc(-c4cccnc4)sc3c2)c1 [compound 45]		90	logP[b] [4]: 2.71
1.35			Cn1cnn(-c2ccc3nc(-c4cccnc4)sc3c2)c1=S [compound 46]		90	logP[b] [4]: 1.49
2.43			CSc1nn(-c2ccc3nc(-c4cccnc4)sc3c2)c(=O)n1C [compound 51]		100	logP[b] [4]: 2.56
1.52			Cn1c(=O)n(C)n(-c2ccc3nc(-c4cccnc4)sc3c2)c1=O [compound 47]		100	logP[b] [4]: 1.63
		3.46	FC(F)(F)c1ccn(-c2ccc3nc(-c4cccnc4)sc3c2)n1 [compound 28, 2-(Pyridin-3-yl)-6-[3-(trifluoromethyl)-1H-pyrazol-1-yl]-1,3-benzothiazole]	100		efficacy (laying of fertile eggs) [5]: 80%

More lines, now with the values behind:

Compound	logP[a] [2]	chromatographic logP [2]	chromatographic logP [4]	pest or weed control at 500 g/ha ([3]; application rate 500 g/ha) [%]	efficacy (aphids killed) ([3]; application rate 500 g/ha) [%]	other results
Clc1ccc(-c2ccc3nc(-c4cccnc4)sc3c2)cc1 [compound 8]	4.43					efficacy (beetle larvae killed) [1]: 83%
Cc1cc(F)c(-c2ccc3nc(-c4cccnc4)sc3c2)cc1SCC(F)(F)F [compound 11, 6-{2-Fluoro-4-methyl-5-[(2,2,2-trifluoroethyl)sulphanyl]phenyl}-2-(pyridin-3-yl)-1,3-benzothiazole]		4.96	4.97	90		
Cc1cc(C)c([S+]([O-])CC(F)(F)F)cc1-c1ccc2nc(-c3cccnc3)sc2c1 (stereo not drawn) [compound 10, 6-{2,4-Dimethyl-5-[(2,2,2-trifluoroethyl)sulphinyl]phenyl}-2-(pyridin-3-yl)-1,3-benzothiazole]		3.45	3.4	90		
Cc1cc(F)c(-c2ccc3nc(-c4cccnc4)sc3c2)cc1[S+]([O-])CC(F)(F)F (stereo not drawn) [compound 12, 6-{2-Fluoro-4-methyl-5-[(2,2,2-trifluoroethyl)sulphinyl]phenyl}-2-(pyridin-3-yl)-1,3-benzothiazole]		3.33	3.33	90		
CNC(=O)c1ccc2nc(-c3cncc(F)c3)sc2c1 [compound 58]	1.67				100	
Cc1cc(C)c(-c2ccc3nc(-c4cccnc4)sc3c2)cc1SCC(F)(F)F [compound 9, 6-{2,4-Dimethyl-5-[(2,2,2-trifluoroethyl)sulphanyl]phenyl}-2-(pyridin-3-yl)-1,3-benzothiazole]		5.22	5.24	90		
O=C(NCC(F)(F)F)c1ccc2nc(-c3cncc(F)c3)sc2c1 [compound 64]	2.51				90	
Cc1ccc(-c2ccc3nc(-c4cccnc4)sc3c2)cc1 [compound 4]	4.25				100	logP[b] [4]: 4.43
O=C(NCc1ccccn1)c1ccc2nc(-c3cccnc3)sc2c1 [compound 33, 2-(Pyridin-3-yl)-N-(pyridin-2-ylmethyl)-1,3-benzothiazole-6-carboxamide]		1.15		100		
CON(C)C(=O)c1ccc2nc(-c3cncc(F)c3)sc2c1 [compound 66]	2.16				100	
CSCCNC(=O)c1ccc2nc(-c3cncc(F)c3)sc2c1 [compound 70]	2.31				90	
Cc1cccc(-c2ccc3nc(-c4cccnc4)sc3c2)c1 [compound 3, 6-(3-Methylphenyl)-2-(pyridin-3-yl)-1,3-benzothiazole]		4.27	4.41	90		
CNC(=O)c1ccc2nc(-c3cccnc3)sc2c1 [compound 57]	1.22				100	
FC(F)(F)CNc1ccc2nc(-c3cccnc3)sc2c1 [compound 13, 2-(Pyridin-3-yl)-N-(2,2,2-trifluoroethyl)-1,3-benzothiazol-6-amine]		2.36	2.47	90		
CS(=O)(=O)CCC(=O)Nc1ccc2nc(-c3cccnc3)sc2c1 [compound 80]	1.22					efficacy (aphids killed) ([3]; application rate 20 g/ha): 100%
CSCCNC(=O)c1ccc2nc(-c3cccnc3)sc2c1 [compound 69, N-[2-(Methylsulphanyl)ethyl]-2-(pyridin-3-yl)-1,3-benzothiazole-6-carboxamide]		1.83		90		
CSCCC(=O)N(C)c1ccc2nc(-c3cncc(F)c3)sc2c1 [compound 79]	2.64				100	
CON(C)C(=O)c1ccc2nc(-c3cccnc3)sc2c1 [compound 65]	1.64				100	
C[S+]([O-])Cn1cc(-c2ccc3nc(-c4cccnc4)sc3c2)cn1 (stereo not drawn) [compound 39, 6-{1-[(Methylsulphinyl)methyl]-1H-pyrazol-4-yl}-2-(pyridin-3-yl)-1,3-benzothiazole]		1.32	1.51	100		
Cc1cc(C)c(SCC(F)(F)F)cc1Nc1ccc2nc(-c3cccnc3)sc2c1 [compound 18, N-{2,4-Dimethyl-5-[(2,2,2-trifluoroethyl)sulphanyl]phenyl}-2-(pyridin-3-yl)-1,3-benzothiazol-6-amine]		4.45	4.51	90		
CCN(C)C(=O)c1ccc2nc(-c3cncc(F)c3)sc2c1 [compound 62]	2.2				100	
FC(F)(F)c1cnn(-c2ccc3nc(-c4cccnc4)sc3c2)c1 [compound 27]					90	logP[b] [4]: 3.42
c1cnc(-c2ccn(-c3ccc4nc(-c5cccnc5)sc4c3)n2)nc1 [compound 30, 2-(Pyridin-3-yl)-6-[3-(pyrimidin-2-yl)-1H-pyrazol-1-yl]-1,3-benzothiazole]			2	90		
Cc1cc(F)c(Nc2ccc3nc(-c4cccnc4)sc3c2)cc1SCC(F)(F)F [compound 20, N-{2-Fluoro-4-methyl-5-[(2,2,2-trifluoroethyl)sulphanyl]phenyl}-2-(pyridin-3-yl)-1,3-benzothiazol-6-amine]		4.18	4.22	90		
CC(F)(F)CNC(=O)c1ccc2nc(-c3cncc(F)c3)sc2c1 [compound 68]	2.39				100	
CN(C(=O)C1CCS(=O)(=O)C1)c1ccc2nc(-c3cccnc3)sc2c1 (stereo not drawn) [compound 82]	1.49				90	
